# Laboratory results taken from paper PMC11181328 (Journal of Medicinal Chemistry, 2024).
# Counter-ions that a name gives are not always drawn. Like-named read-outs stand apart in the source and are kept apart here.
# What was measured:
# [1] = molecular target: T1, DOR (Homo sapiens, UniProt P41143); assay: Competitive radioligand binding assay, DOR
# T1 construct: expressed in transfected cells; membrane homogenate
# [2] = molecular target: T2, KOR (Mus musculus, UniProt P33534); assay: Competitive radioligand binding assay, KOR; conditions: for selectivity ratio δ/κ / selectivity ratio μ/κ: ratio of Ki values; for radioligand binding affinity (Ki, nM) KOR: [3H]diprenorphine, mKOR-CHO membranes
# T2 construct: expressed in transfected cells; membrane homogenate
# [3] = molecular target: T3, MOR (Mus musculus, UniProt P42866); assay: Competitive radioligand binding assay, MOR; set-up: expressed in transfected cells; membrane homogenate
# [4] = molecular target: T3, MOR; assay: [35S]-GTPγS functional assay, MOR; format: biochemical; set-up: expressed in transfected cells; membrane homogenate; conditions: for Emax: read-out: [35S]-GTPγS functional activity MOR Emax (%)
# [5] = test system: male Swiss Webster mice; assay: Warm-water tail immersion assay, agonism (single dose screen and potency); format: in vivo, mouse; conditions: for antinociception compared to the vehicle group / percent MPE: single dose 10 mg/kg s.c.; for antinociception compared to the vehicle group: 20 min; for ED50: Mus musculus, sc, read-out: potency ED50 [95% CI] mg/kg, s.c., 20 min prior to tail withdrawal latency measurement, male Swiss Webster mice; for percent MPE: withdrawal latency 20 min after administration
# [6] = molecular target: T1, DOR; assay: [35S]-GTPγS functional assay, DOR; format: biochemical; conditions: for EC50: hDOR-CHO membranes; for Emax: percent of SNC80 full agonist control
# [7] = molecular target: T2, KOR; assay: [35S]-GTPγS functional assay, KOR; format: biochemical; conditions: for EC50: mKOR-CHO membranes; for Emax: percent of U50,488 full agonist control
# [8] = [3H]naloxone, mMOR-CHO membranes
Compound,Ki [1],Ki [2],selectivity ratio δ/κ [2],selectivity ratio μ/κ [2],Ki [3],EC50 ([4]; mMOR-CHO membranes),Emax [4],antinociception compared to the vehicle group [5],EC50 [6],Emax [6],EC50 [7],Emax [7],"radioligand binding affinity (Ki, nM) MOR [3, 8]",further results
"O=C(CCc1ccco1)N[C@H]1CC[C@@]2(O)[C@H]3Cc4cccc5c4[C@@]2(CCN3CC2CC2)[C@H]1O5 [Compound 10, 17-Cyclopropylmethyl-4,5α-epoxy-6α-[3′-(furan-2″-yl)propanamido]-14β-hydroxymorphinan Hydrochloride]",90.2 ± 13 nM,73.8 ± 12.2 nM,1,1,53.1 ± 6.06 nM,278 ± 107 nM,10.2 ± 1.33%,lack of significant antinociceptive effect,348 ± 40.2 nM,> 80%,442 ± 29.9 nM,86.5 ± 1.55%,,Selectivity Ratio DOR/KOR ([2]; supplement csv): 1; Selectivity Ratio MOR/KOR ([2]; supplement csv): 1
"CN(C(=O)CCc1ccco1)[C@@H]1CC[C@@]2(O)[C@H]3Cc4cccc5c4[C@@]2(CCN3CC2CC2)[C@H]1O5 [Compound 11, 17-Cyclopropylmethyl-4,5α-epoxy-6β-[3′-(furan-2″-yl)-N-methylpropanamido]-14β-hydroxymorphinan Hydrochloride]",532 ± 92.5 nM,50.4 ± 6.84 nM,11,2,93.6 ± 10.4 nM,5620 ± 2130 nM,22.9 ± 2.39%,lack of significant antinociceptive effect,1100 ± 108 nM,61.7 ± 4.27%,146 ± 27.1 nM,109 ± 5.9%,,
"O=C(CCc1ccco1)N[C@@H]1CC[C@@]2(O)[C@H]3Cc4cccc5c4[C@@]2(CCN3CC2CC2)[C@H]1O5 [Compound 12, 17-Cyclopropylmethyl-4,5α-epoxy-6β-[3′-(furan-2″-yl)propanamido]-14β-hydroxymorphinan Hydrochloride]",800 ± 96.7 nM,23.6 ± 3.79 nM,34,1,27.5 ± 2.9 nM,104 ± 24.2 nM,10.8 ± 1.13%,lack of significant antinociceptive effect,2400 ± 200 nM,71 ± 6.1%,368 ± 31.8 nM,86.83 ± 0.69%,,
"CN(C(=O)CCc1ccco1)[C@H]1CC[C@@]2(O)[C@H]3Cc4ccc(O)c5c4[C@@]2(CCN3CC2CC2)[C@H]1O5 [Compound 13, 17-Cyclopropylmethyl-3,14β-dihydroxy-4,5α-epoxy-6α-[3′-(furan-2″-yl)-N-methylpropanamido]morphinan Hydrochloride]",0.37 ± 0.07 nM,0.12 ± 0.02 nM,,,0.15 ± 0.01 nM,0.31 ± 0.04 nM,15.3 ± 1.08%,,0.66 ± 0.06 nM,63.1 ± 2.6%,0.04 ± 0.01 nM,101 ± 2.5%,subnanomolar,"radioligand binding affinity (Ki, nM) DOR ([1]; [3H]diprenorphine, hDOR-CHO membranes): subnanomolar; radioligand binding affinity (Ki, nM) KOR [2]: subnanomolar; ED50 [5]: 0.123 mg/kg; percent MPE [5]: ≥ 80%"
"Cl.O=C(CCc1ccco1)N[C@H]1CC[C@@]2(O)[C@H]3Cc4ccc(O)c5c4[C@@]2(CCN3CC2CC2)[C@H]1O5 [Compound 14, 17-Cyclopropylmethyl-3,14β-dihydroxy-4,5α-epoxy-6α-[3′-(furan-2″-yl)propanamido]morphinan Hydrochloride]",,,,,,,21.8 ± 2.76%,lack of significant antinociceptive effect,3.55 ± 0.77 nM,,5.22 ± 0.79 nM,,subnanomolar,"Ki ([3]; [3H]naloxone, mMOR-CHO membranes, read-out: radioligand binding affinity (Ki, nM) MOR): 0.72 ± 0.1 nM; EC50 ([4]; supplement csv): 2.77 ± 0.73 nM"
"CN(C(=O)CCc1ccco1)[C@@H]1CC[C@@]2(O)[C@H]3Cc4ccc(O)c5c4[C@@]2(CCN3CC2CC2)[C@H]1O5 [Compound 15, 17-Cyclopropylmethyl-3,14β-dihydroxy-4,5α-epoxy-6β-[3′-(furan-2″-yl)-N-methylpropanamido]morphinan Hydrochloride]",7.32 ± 1.08 nM,0.32 ± 0.03 nM,,,0.66 ± 0.05 nM,3.58 ± 0.59 nM,15.3 ± 0.5%,,16.9 ± 2.57 nM,38.6 ± 1.37%,1.48 ± 0.17 nM,100.7 ± 1%,subnanomolar,"radioligand binding affinity (Ki, nM) KOR [2]: subnanomolar; ED50 [5]: 0.251 mg/kg; percent MPE [5]: ≥ 80%"
"CN(C(=O)/C=C/c1ccco1)[C@@H]1CC[C@@]2(O)[C@H]3Cc4cccc5c4[C@@]2(CCN3CC2CC2)[C@H]1O5 [Compound 19, 17-Cyclopropylmethyl-4,5α-epoxy-6β-[(2E)-3′-(furan-2″-yl)-N-methylprop-2-enamido]-14β-hydroxymorphinan Hydrochloride]",2260 ± 338 nM,4.11 ± 0.57 nM,551,52,215 ± 26.5 nM,888 ± 363 nM,11 ± 0.68%,,5980 ± 581 nM,> 80%,53.9 ± 3.33 nM,96.9 ± 8.02%,,
